Results taken from US20090176837A1, “COMPOUNDS WITH ACTIVITY AT RETINOIC ACID RECEPTORS” (SONY CORPORATION, priority 2006, published 2009).
Read-outs that look alike come from different tables or passages of the source.

Molecular target: T1, RARβ2 (Homo sapiens, UniProt P10826)
T1 construct: expressed in transfected cells
T1 sequence (P10826 1-448 isoform P10826-2): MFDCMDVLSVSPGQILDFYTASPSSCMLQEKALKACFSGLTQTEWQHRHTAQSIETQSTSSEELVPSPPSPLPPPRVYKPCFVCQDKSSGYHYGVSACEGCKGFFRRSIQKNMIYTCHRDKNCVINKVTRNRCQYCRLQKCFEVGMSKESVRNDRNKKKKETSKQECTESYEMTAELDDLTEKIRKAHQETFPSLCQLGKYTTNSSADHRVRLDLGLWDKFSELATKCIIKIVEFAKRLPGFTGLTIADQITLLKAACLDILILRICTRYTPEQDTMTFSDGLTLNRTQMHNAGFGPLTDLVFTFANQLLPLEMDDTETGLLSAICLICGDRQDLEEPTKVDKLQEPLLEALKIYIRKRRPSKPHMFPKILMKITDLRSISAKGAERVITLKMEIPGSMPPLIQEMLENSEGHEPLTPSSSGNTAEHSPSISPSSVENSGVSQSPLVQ
Assay: Receptor Selection and Amplification Technology (R-SAT) functional receptor assay
Assay type: cell-based
Text: The functional receptor assay, Receptor Selection and Amplification Technology (R-SAT), was used to investigate the pharmacological properties of known and novel RARβ agonists and antagonists.
Efficacy is relative to the maximal response of the reference ligand, Am-580.

[1] = Table 1, efficacy relative to the maximal response of the reference ligand Am-580
[2] = Table 1, efficacy relative to the maximal response of the reference ligand Am-580, read-out: % Eff.
[3] = Table 1, read-out: pEC50 (converted)
[4] = Table 2, efficacy relative to the maximal response of the reference ligand Am-580, read-out: % Eff.
[5] = Table 2, read-out: pEC50 (converted)
[6] = Table 2, efficacy relative to the maximal response of the reference ligand Am-580

With “2-Fluoro-4-octyl[1,1′-biphenyl]-4-carboxylic acid [Compound 38]” the pEC50 (Table 1) was 6.81 and the “% Eff.” value [1] was 70%.

“4-Heptyl-3-methyl[1,1′-biphenyl]-4-carboxylic acid [Compound 52]” was tested, and the pEC50 (Table 1) was 6.41 and the “% Eff.” value [1] was 45%.

`CCCCCCCCc1ccc(-c2ccc(C(=O)O)cc2C)cc1` [Compound 1, 2-Methyl-4′-octyl[1,1′-hiphenyl]-4-carboxylic acid] was tested, and the Emax [2] was 39% and the EC50 [3] was 0.00229 µM.

Molecule `CCCCCCCCCc1ccc(-c2ccc(C(=O)O)cc2)cc1` [Compound 2, 4′-Nonyl-biphenyl-4-carboxylic acid] has an Emax [2] of 126% and an EC50 [3] of 0.00794 µM.

`CCCCCc1ccc(-c2ccc(C(=O)O)cc2)cc1` [Compound 4] was tested, and the pEC50 (Table 1) was 7.82 and the Emax [2] was 44%.

In the case of `CCCCCCCCc1ccc(-c2ccc(C(=O)OCCc3ccccn3)c(F)c2)cc1` [Compound 5, 3-Fluoro-4′-octyl-biphenyl-4-carboxylic acid 2-pyridin-2-yl-ethyl ester], the Emax [4] is reported as 124% and the EC50 [5] is reported as 0.0162 µM.

For `CCCCCCCc1ccc(-c2ccc(C(=O)OCCc3ccccn3)c(F)c2)cc1` [Compound 7, 3-Fluoro-4′-heptyl-biphenyl-4-carboxylic acid 2-pyridin-2-yl-ethyl ester], the Emax [4] was 95% and the EC50 [5] was 0.0195 µM.

For `CCCCCCCc1ccc(-c2ccc(C(=O)O)cc2)cc1` [Compound 9], the pEC50 (Table 1) was 7.59 and the Emax [2] was 76%.

With `CCCCCCCc1ccc(-c2ccc(C(=O)O)cc2)cc1` [Compound 10, 4′-Heptyl[1,1′-biphenyl]-4-carboxylic acid] the “% Eff.” value [1] was 64% and the EC50 [3] was 0.0263 µM.

`CCCCCCOc1cc(C)c(-c2ccc(C(=O)O)cc2)cc1C` [Compound 11, 4′-(Hexyloxy)-2′,5′-dimethyl[1,1′-biphenyl]-4-carboxylic acid] gave an Emax [2] of 78% and an EC50 [3] of 0.0275 µM.

In the case of `CCCCCCOc1ccc(-c2ccc(C(=O)O)cc2)cc1` [Compound 12], the pEC50 (Table 1) is reported as 7.54 and the Emax [2] is reported as 72%.

With `CCCCCCNC(=O)COc1nc(-c2ccc(C(=O)O)cc2)sc1C` [Compound 13, 4-(4-Hexylcarbamoylmethoxy-5-methyl-thiazol-2-yl)-benzoic acid] the Emax [2] was 85% and the EC50 [3] was 0.0417 µM.

`CCCCCCCCc1ccc(-c2ccc(C(=O)OCCc3ccccn3)cc2)cc1` [Compound 14] was tested, and the pEC50 (Table 2) was 7.38 and the “% Eff.” value [6] was 93%.

For `CCCCCCCCc1ccc(-c2ccc(C(=O)n3cnc(NC(C)=O)n3)cc2)cc1` [Compound 15], the pEC50 (Table 1) was 7.37 and the Emax [2] was 76%.

With `CCCCCCc1ccc(-c2ccc(C(=O)O)cc2)cc1` [Compound 16] the pEC50 (Table 1) was 7.34 and the Emax [2] was 37%.

In the case of `CCCCCCCc1ccc(-c2ccc(C(=O)OCc3ccco3)cc2)cc1` [Compound 17, 4′-Heptyl-biphenyl-4-carboxylic acid furan-2-ylmethyl Ester], the “% Eff.” value [6] is reported as 33% and the EC50 [5] is reported as 0.0457 µM.

With `CCCCOCCOc1ccc(-c2ccc(C(=O)O)cc2)cc1` [Compound 18, 4′-(2-Butoxyethoxy)-[1,1-biphenyl]-4-carboxylic acid] the Emax [2] was 108% and the EC50 [3] was 0.0479 µM.

Work on `CCCCCCCc1ccc(-c2ccc(C(=O)OCCC#N)cc2)cc1` [Compound 19, 4′-Heptyl-biphenyl-4-carboxylic acid 2-cyano-ethyl ester] yielded an Emax [4] of 36% and an EC50 [5] of 0.0525 µM.

`CCCCCCCCCCOc1ccc(-c2ccc(C(=O)O)cc2)cc1` [Compound 20] showed a pEC50 (Table 1) of 7.26 and an Emax [2] of 98%.

With `CCCCCCCc1ccc(-c2ccc(C(=O)OCc3ccco3)cc2)cc1` [Compound 21] the pEC50 (Table 2) was 7.26 and the “% Eff.” value [6] was 106%.

Molecule `CCCCCCCc1ccc(-c2ccc(C(=O)O)cc2F)cc1` [Compound 22, 2-Fluoro-4′-heptyl[1,1′-biphenyl]-4-carboxylic acid] has an Emax [2] of 36% and an EC50 [3] of 0.0575 µM.

`CCCCCCCOc1ccc(-c2ccc(C(=O)OCCC#N)cc2)cc1` [Compound 23, 4′-Heptyloxy-biphenyl-4-carboxylic acid 2-cyano-ethyl ester] was tested, and the Emax [4] was 46% and the EC50 [5] was 0.0603 µM.

In the case of `CCCCCCCOc1ccc(-c2ccc(C(=O)O)cc2)cc1` [Compound 24], the pEC50 (Table 1) is reported as 7.21 and the Emax [2] is reported as 58%.

`CC(C)CCCCOc1ccc(-c2ccc(C(=O)O)cc2)cc1` [Compound 25, 4′-(5-Methyl-hexyloxy)-biphenyl-4-carboxylic acid] gave a pEC50 (Table 1) of 7.20 and an Emax [2] of 65%.

`O=C(O)c1ccc(-c2ccc(OCCC=C(C3CC3)C3CC3)cc2)cc1` [Compound 26, 4′[(4,4-Dicyclopropyl-3-butenyl)oxy][1,1-biphenyl]-4-carboxylic acid] was tested, and the “% Eff.” value [1] was 36%.

`CCCCOCCOc1nc(-c2ccc(C(=O)O)cc2)sc1C` [Compound 27, 4-[4-(2-Butoxy-ethoxy)-5-methyl-thiazol-2-yl]-benzoic acid] showed an Emax [2] of 95% and an EC50 [3] of 0.0759 µM.

In the case of `CCCCCCCCc1ccc(-c2ccc(C(=O)OCCc3ccccn3)cc2)cc1` [Compound 28], the pEC50 (Table 2) is reported as 7.09 and the “% Eff.” value [6] is reported as 70%.

`CCCCCCCCc1ccc(-c2ccc(C(=O)Nc3ccc(C)cn3)cc2)cc1` [Compound 29] gave a pEC50 (Table 1) of 7.08 and an Emax [2] of 78%.

`CCCCCCCOc1ccc(-c2ccc(C(=O)OCCc3ccccn3)cc2)cc1` [Compound 30, 4′-Heptyloxy-biphenyl-4-carboxylic acid 2-pyridin-2-yl-ethyl ester] gave an Emax [4] of 62% and an EC50 [5] of 0.0912 µM.

In the case of `CCCCCCCCc1ccc(-c2ccc(C(=O)C(=O)O)cc2)cc1` [Compound 31, (4′-Octyl-biphenyl-4-yl)-oxo-acetic acid], the Emax [2] is reported as 80% and the EC50 [3] is reported as 0.0955 µM.

`CCCCCCCCOc1ccc(-c2ccc(C(=O)O)cc2)cc1` [Compound 32] showed a pEC50 (Table 1) of 7.02 and an Emax [2] of 70%.

In the case of `CCCOCCOc1nc(-c2ccc(C(=O)O)cc2)sc1C` [Compound 33, 4-[5-Methyl-4-(2-propoxy-ethoxy)-thiazol-2-yl]-benzoic acid], the Emax [2] is reported as 98% and the EC50 [3] is reported as 0.11 µM.

`CCCCCCCCc1ccc(-c2ccc(C(=O)OCCC#N)cc2)cc1` [Compound 34, 4′-Octyl-biphenyl-4-carboxylic acid 2-cyano-ethyl ester] gave an Emax [4] of 71% and an EC50 [5] of 0.112 µM.

In the case of `CCCCCCCCc1ccc(-c2ccc(C(=O)O)cc2)cc1` [Compound 35], the pEC50 (Table 1) is reported as 6.94 and the “% Eff.” value [1] is reported as 83%.

`CCCCCCCc1ccc(-c2ccc(C(=O)O)c(F)c2)cc1` [Compound 36, 3-Fluoro-4′-heptyl[1,1′-biphenyl]-4-carboxylic acid] gave an Emax [2] of 42% and an EC50 [3] of 0.123 µM.

In the case of `CCCCCCCc1ccc(-c2ccc(C(=O)NO)cc2)cc1` [Compound 37, 4′-Heptyl-biphenyl-4-carboxylic acid hydroxyamide], the Emax [2] is reported as 49% and the EC50 [3] is reported as 0.135 µM.

`CCCCCCCOc1ccc(-c2ccc(C(=O)OCCC#N)cc2)cc1` [Compound 39, 4′-Heptyloxy-biphenyl-4-carboxylic acid 2-cyano-ethyl ester] was tested, and the “% Eff.” value [6] was 42% and the EC50 [5] was 0.174 µM.

`CCCCCCCCc1ccc(-c2ccc(C(=O)OCCc3ccccn3)cc2)cc1` [Compound 40] was tested, and the pEC50 (Table 2) was 6.75 and the “% Eff.” value [6] was 82%.

`CCCCCCOc1ccc(-c2ccc(C(=O)OCc3ccco3)cc2)cc1` [Compound 41, 4′-Hexyloxy-biphenyl-4-carboxylic acid furan-2-ylmethyl ester] gave an Emax [4] of 25% and an EC50 [5] of 0.178 µM.

`CCCCCCCCOc1ccc(-c2ccc(C(=O)OCCC#N)cc2)cc1` [Compound 42, 4′-Octyloxy-biphenyl-4-carboxylic acid 2-cyano-ethyl ester] showed an Emax [4] of 46% and an EC50 [5] of 0.195 µM.

`CCCCCCCCOc1ccc(-c2ccc(C(=O)OCc3ccco3)cc2)cc1` [Compound 43, 4′-Octyloxy-biphenyl-4-carboxylic acid furan-2-ylmethyl ester] showed an Emax [4] of 67% and an EC50 [5] of 0.214 µM.

With `CCCCOCCOc1cc(C)c(-c2ccc(C(=O)O)cc2)cc1C` [Compound 44, 4′-(2-Butoxyethoxy)-2′,5′-dimethyl[1,1-biphenyl]-4-carboxylic acid] the Emax [2] was 41% and the EC50 [3] was 0.245 µM.

With `CCCCCCCc1ccc(-c2ccc(C(=O)NN)cc2)cc1` [Compound 45, 4′-Heptyl-biphenyl-4-carboxylic acid hydrazide] the Emax [2] was 78% and the EC50 [3] was 0.257 µM.

Molecule `CCCCC(CC)COc1nc(-c2ccc(C(=O)O)cc2)sc1C` (stereo not shown) [Compound 46, 4-[4-(2-Ethyl-hexyloxy)-5-methyl-thiazol-2-yl]-benzoic acid] has an Emax [2] of 54% and an EC50 [3] of 0.263 µM.

In the case of `O=C(O)c1ccc(-c2ccc(OCCC=C(C3CC3)C3CC3)cc2)cc1` [Compound 47, 4′-(4,4-Dicyclopropyl-but-3-enyloxy)-biphenyl-4-carboxylic acid], the “% Eff.” value [1] is reported as 58%.

For `CCCCCCCCc1ccc(-c2ccc(C(=O)OCc3ccco3)cc2)cc1` [Compound 48, 4′-Octyl-biphenyl-4-carboxylic acid furan-2-ylmethyl ester], the Emax [4] was 49% and the EC50 [5] was 0.275 µM.

Work on `CCCC1CCCC(c2ccc(-c3ccc(C(=O)O)cc3)cc2)CC1` (stereo not shown) [Compound 49] yielded a pEC50 (Table 1) of 6.55 and an Emax [2] of 59%.

Molecule `CCCCCCCCN1CCN(c2ccc(C(=O)O)cc2)CC1` [Compound 50, 4-(4-Octyl-piperazin-1-yl)-benzoic acid] has an Emax [2] of 85% and an EC50 (pEC50, Table 1) of 0.295 µM.
